Measured values: article PMC7486443, “Generation of Phenothiazine with Potent Anti-TLK1 Activity for Prostate Cancer Therapy” (iScience, 2020)

Tests used:
Experiment in all cases: biochemical
Design in all cases: DiscoverX KINOMEscan scanMAX competition binding panel, single concentration, percent of control; remaining binding: dose or concentration left out as unconfirmed
Conditions in all cases: KINOMEscan binding, percent of control; read-out: Table S4_SCANMAX REPORT - related to Fig. 1 / Percent Control
PIKFYVE = PIKFYVE (Homo sapiens, UniProt Q9Y2I7)
MARK3 = MARK3 (Homo sapiens, UniProt P27448)
CHEK1 = CHEK1 (Homo sapiens, UniProt O14757)
CSNK2A2 = CSNK2A2 (Homo sapiens, UniProt P19784)
CSK = CSK (Homo sapiens, UniProt P41240)
PIK3CA(H1047L) = PIK3CA(H1047L) (Homo sapiens, UniProt P42336, H1047L)
TXK = TXK (Homo sapiens, UniProt P42681)
MST1 = target: T1, MST1 (Homo sapiens, UniProt Q13043)
T1 construct: gene STK4

PHKG1 = PHKG1 (Homo sapiens, UniProt Q16816)
CDC2L5 = target: T2, CDC2L5 (Homo sapiens, UniProt Q14004)
T2 construct: gene CDK13

p38-delta = target: T3, p38-delta (Homo sapiens, UniProt O15264)
T3 construct: gene MAPK13

MEK4 = target: T4, MEK4 (Homo sapiens, UniProt P45985)
T4 construct: gene MAP2K4

[1] = target: T5, ABL1(H396P)-phosphorylated (Homo sapiens, UniProt P00519, H396P)
T5 construct: phosphorylated

BMPR1B = BMPR1B (Homo sapiens, UniProt O00238)
[2] = target: T6, ABL1(H396P)-nonphosphorylated (Homo sapiens, UniProt P00519, H396P)
T6 construct: nonphosphorylated

MARK4 = MARK4 (Homo sapiens, UniProt Q96L34)
EPHA5 = EPHA5 (Homo sapiens, UniProt P54756)
EGFR(E746-A750del) = EGFR(E746-A750del) (Homo sapiens, UniProt P00533, DEL746-750)
Sequence of EGFR(E746-A750del) (P00533 with tags, fused parts or gaps DEL746-750): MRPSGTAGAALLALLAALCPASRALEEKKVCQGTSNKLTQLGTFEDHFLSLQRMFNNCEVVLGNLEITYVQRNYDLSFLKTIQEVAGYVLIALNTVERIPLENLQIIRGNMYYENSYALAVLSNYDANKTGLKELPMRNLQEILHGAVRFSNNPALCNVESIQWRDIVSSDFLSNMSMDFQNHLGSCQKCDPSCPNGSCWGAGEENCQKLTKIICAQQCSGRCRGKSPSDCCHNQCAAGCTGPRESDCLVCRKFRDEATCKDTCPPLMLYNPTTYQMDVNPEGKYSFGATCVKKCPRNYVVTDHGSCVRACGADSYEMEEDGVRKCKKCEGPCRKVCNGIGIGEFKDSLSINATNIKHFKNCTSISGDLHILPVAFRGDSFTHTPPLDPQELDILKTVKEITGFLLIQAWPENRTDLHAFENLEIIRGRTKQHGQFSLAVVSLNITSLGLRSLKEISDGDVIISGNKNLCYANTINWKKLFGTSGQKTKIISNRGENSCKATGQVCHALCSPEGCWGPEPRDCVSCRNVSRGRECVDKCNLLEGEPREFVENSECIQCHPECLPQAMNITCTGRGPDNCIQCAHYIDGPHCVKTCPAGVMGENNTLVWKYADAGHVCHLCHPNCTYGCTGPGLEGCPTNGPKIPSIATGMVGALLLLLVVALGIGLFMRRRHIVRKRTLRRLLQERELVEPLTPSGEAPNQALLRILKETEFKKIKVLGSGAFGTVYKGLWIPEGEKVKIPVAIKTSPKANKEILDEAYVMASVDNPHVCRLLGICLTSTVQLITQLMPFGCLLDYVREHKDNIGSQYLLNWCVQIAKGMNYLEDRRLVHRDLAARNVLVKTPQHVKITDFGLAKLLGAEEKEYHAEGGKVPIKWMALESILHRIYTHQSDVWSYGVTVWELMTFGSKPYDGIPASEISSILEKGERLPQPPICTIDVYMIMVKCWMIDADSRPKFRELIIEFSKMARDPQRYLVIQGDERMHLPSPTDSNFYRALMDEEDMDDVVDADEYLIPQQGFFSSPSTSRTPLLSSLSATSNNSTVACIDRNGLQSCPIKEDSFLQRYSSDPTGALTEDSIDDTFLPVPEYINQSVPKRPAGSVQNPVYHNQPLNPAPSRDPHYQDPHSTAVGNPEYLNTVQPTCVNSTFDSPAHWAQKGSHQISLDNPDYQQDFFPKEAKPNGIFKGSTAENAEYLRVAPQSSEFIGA

Sequence of MARK3 (P27448 whole entry): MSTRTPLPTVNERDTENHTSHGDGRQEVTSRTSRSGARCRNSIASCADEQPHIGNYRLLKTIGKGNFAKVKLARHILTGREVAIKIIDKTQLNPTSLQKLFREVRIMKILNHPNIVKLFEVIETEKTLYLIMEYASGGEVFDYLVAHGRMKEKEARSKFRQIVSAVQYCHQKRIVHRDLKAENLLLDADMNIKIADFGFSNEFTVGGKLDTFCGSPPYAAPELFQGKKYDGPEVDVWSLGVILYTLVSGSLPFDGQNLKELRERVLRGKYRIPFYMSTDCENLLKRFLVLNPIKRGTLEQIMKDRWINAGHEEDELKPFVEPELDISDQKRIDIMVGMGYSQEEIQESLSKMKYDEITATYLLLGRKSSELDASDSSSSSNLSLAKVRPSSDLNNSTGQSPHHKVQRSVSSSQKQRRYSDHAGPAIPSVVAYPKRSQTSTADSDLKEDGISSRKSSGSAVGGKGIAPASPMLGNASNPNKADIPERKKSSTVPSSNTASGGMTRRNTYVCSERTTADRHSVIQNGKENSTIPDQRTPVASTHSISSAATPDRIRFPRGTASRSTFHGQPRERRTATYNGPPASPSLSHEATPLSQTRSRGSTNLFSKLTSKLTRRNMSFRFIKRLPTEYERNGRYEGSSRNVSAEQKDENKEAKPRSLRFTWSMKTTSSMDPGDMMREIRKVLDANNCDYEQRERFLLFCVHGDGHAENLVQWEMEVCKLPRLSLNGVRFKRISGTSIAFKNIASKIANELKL
Sequence of EPHA5 (P54756 whole entry): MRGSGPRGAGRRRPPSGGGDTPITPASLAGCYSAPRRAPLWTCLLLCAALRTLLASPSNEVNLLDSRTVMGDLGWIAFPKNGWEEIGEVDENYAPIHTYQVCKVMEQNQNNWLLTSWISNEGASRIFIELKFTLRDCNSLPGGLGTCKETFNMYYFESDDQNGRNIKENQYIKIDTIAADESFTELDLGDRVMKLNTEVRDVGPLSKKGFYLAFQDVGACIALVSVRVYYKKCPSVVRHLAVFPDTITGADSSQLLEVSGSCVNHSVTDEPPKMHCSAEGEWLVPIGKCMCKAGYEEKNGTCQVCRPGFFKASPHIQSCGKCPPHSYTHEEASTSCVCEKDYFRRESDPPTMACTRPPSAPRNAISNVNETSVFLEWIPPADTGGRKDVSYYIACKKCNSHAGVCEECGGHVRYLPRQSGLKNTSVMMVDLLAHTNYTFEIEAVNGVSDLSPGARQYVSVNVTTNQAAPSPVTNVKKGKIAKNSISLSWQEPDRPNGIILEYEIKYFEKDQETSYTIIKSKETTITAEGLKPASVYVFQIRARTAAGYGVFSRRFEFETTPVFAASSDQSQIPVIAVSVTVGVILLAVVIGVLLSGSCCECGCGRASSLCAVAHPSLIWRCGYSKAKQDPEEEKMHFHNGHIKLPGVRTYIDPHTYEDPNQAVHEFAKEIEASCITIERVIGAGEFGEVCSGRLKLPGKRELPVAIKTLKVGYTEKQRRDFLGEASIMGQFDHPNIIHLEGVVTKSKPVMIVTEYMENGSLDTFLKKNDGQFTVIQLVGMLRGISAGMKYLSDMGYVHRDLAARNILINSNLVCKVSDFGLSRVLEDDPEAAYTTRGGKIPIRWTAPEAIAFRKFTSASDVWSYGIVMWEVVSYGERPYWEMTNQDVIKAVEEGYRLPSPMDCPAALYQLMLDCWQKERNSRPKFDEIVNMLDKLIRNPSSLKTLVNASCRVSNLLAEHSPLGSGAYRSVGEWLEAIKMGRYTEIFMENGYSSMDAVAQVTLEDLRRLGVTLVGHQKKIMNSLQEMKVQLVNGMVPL
T2 sequence (Q14004 whole entry): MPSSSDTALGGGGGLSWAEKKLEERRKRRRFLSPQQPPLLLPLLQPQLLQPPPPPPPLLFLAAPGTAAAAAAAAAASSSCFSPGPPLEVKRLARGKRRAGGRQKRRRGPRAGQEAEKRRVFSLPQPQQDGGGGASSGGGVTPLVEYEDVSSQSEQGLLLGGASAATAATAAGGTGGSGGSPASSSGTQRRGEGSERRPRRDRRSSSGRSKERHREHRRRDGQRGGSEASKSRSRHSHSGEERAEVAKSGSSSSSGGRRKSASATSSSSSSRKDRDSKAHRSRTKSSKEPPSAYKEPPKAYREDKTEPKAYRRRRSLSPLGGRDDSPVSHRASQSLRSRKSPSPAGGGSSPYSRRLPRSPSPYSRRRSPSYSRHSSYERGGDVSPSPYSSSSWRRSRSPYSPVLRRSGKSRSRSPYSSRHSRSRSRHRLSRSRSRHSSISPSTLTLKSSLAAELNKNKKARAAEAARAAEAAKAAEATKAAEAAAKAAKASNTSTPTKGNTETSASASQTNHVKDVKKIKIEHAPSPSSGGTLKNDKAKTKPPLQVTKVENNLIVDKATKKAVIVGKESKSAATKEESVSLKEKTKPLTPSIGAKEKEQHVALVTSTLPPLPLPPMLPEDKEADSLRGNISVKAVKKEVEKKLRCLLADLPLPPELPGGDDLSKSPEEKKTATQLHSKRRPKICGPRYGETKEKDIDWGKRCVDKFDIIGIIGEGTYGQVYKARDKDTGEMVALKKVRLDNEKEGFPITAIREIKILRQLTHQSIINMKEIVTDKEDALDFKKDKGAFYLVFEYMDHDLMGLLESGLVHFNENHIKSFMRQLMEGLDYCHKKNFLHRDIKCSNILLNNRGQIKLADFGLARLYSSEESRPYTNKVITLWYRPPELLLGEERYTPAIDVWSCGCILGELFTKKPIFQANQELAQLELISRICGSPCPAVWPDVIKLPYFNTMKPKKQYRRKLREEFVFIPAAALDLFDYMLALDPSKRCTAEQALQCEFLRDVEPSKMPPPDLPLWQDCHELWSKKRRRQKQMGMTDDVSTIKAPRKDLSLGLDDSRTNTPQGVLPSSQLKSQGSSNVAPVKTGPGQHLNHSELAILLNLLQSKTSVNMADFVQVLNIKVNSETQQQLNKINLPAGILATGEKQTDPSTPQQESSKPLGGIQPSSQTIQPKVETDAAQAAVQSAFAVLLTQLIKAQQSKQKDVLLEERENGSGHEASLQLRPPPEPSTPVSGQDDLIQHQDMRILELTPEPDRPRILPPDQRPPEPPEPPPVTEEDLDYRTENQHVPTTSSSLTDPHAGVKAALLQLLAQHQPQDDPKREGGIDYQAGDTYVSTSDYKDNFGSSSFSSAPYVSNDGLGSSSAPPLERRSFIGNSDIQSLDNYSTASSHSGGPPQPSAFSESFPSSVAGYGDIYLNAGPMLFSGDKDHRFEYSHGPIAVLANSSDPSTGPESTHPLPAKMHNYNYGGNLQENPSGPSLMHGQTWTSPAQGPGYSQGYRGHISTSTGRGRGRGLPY
Sequence of TXK (P42681 whole entry): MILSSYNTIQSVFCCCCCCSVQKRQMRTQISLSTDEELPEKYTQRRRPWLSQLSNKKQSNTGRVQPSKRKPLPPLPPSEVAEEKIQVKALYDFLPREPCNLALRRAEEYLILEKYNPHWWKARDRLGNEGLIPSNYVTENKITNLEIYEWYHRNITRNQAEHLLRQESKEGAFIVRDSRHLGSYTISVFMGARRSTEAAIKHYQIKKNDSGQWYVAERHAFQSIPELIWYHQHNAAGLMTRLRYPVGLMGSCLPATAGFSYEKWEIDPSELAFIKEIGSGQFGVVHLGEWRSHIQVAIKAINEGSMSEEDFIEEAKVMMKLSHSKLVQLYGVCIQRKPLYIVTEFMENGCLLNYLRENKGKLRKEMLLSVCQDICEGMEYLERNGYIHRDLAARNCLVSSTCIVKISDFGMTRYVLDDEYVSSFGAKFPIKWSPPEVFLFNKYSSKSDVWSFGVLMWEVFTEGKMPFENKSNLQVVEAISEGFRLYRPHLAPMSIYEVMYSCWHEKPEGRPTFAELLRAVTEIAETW

For `c1ccc2c(c1)Sc1ccccc1N2CCN1CCOCC1` [J54], the remaining binding (PIKFYVE) was 94%, the remaining binding (MARK3) was 100% and the remaining binding (CHEK1) was 100%. It also gave a remaining binding (CSNK2A2) of 77%, a remaining binding (CSK) of 100% and a remaining binding (PIK3CA(H1047L)) of 100%. The remaining binding (TXK) was 99%, the remaining binding (MST1) was 100% and the remaining binding (PHKG1) was 100%. The remaining binding (CDC2L5) was 92%, the remaining binding (p38-delta) was 100% and the remaining binding (MEK4) was 100%. It also gave a remaining binding [1] of 100%, a remaining binding (BMPR1B) of 93% and a remaining binding [2] of 86%. The remaining binding (MARK4) was 100%, the remaining binding (EPHA5) was 100% and the remaining binding (EGFR(E746-A750del)) was 76%.
